How the values were obtained:
[1] = test system: U2OS cells containing DR-GFP reporter; experiment: DR-GFP gene conversion (HR) reporter assay; assay type: cell-based, human; settings: 24-h treatment
Method: Figure 4 NSC-105808 inhibits HR repair and DSB end resection. (a) Analysis of HR efficiency with the DR-green fluorescent protein (GFP) assay. Representative images of flow cytometry analysis and bar graph showing percentage of GFP cells from at least three independent experiments. Each value represents the mean±s.d. (b, c) Analysis of RPA phosphorylation in U2OS cells treated with NSC-105808 (2 h, 0.3 μM) and/or camptothecin (CPT; 2 h, 1 μM). (b) Representative images of cells subjected to immunofluorescent staining of p-RPA and bar graph showing percentage of cells with positive p-RPA staining from three independent experiments. Each value represents the mean±s.d. (c) Western blot analysis of chromatin fraction with the indicated antibodies. (d) Analysis of colony formation by FANCD2 (+/+) and FANCD2 (−/−) cells treated with cisplatin and/or NSC-105808. Each value is relative to the untreated control group of each cell line. The graph represents the mean±s.e.m. from three independent experiments. *P<0.01.
The DR-green fluorescent protein, pCAGGS and pCBASce plasmids were kindly provided by Dr Maria Jasin (Memorial Sloan-Kettering Cancer Center, New York, NY, USA). […]
The GFP expressing plasmid (pEGFP-C1) was used for transfection efficiency control. […] Efficiency of HR and SSA was calculated by normalizing I-SceI-induced GFP expression with EGFP transfection-induced GFP expression. […]

[2] = test system: U2OS cells; experiment: Cell cycle distribution (BrdU, flow cytometry); assay type: cell-based, human; settings: highest tested concentration 0.6 μM, 24 h; slight decrease of G1, increase of G2
Method: Apoptosis was measured by flow cytometry using the Annexin V FITC assay kit based on the protocol from the manufacturer (Invitrogen). For BrdU (bromodeoxyuridine (5-bromo-2′-deoxyuridine)) analysis, after treatments, cells were labeled with BrdU (Sigma) for 30 min before fixation with 70% cold ethanol (−20 °C). The next day, cells were washed with cold phosphate-buffered saline and incubated with 2 M HCl for 5 min at room temperature. After adjusting the pH with 0.1 M sodium borate (pH 8.5), cells were incubated in 1% bovine serum albumin with 0.1% Triton X-100 for 30 min and mouse anti-BrdU antibody (1:400) for 1 h to detect BrdU labeling. After washing, cells were incubated with secondary antibody (fluorescein isothiocyanate 1:400) for 30 min. […] For fluorescence-activated cell sorting analysis, the percentage of cells with positive BrdU staining in each phase of the cell cycle was quantitated with the CellQuest software and ModFit software (Verity Software House Inc., Topsham, ME, USA).
Figure S7: Cell cycle distribution of U2OS cells upon treatment with NSC-105808. (a) U2OS cells were treated with DMSO or the indicated concentration of NSC-105808 for 24 hrs followed by a pulse of BrdU (10 µM) for 30 minutes and then analyzed by flow cytometry. […] (c) Quantitation of the G1 cell population. […]

Q: How did the “DSB repair by gene conversion” value [1] turn out when `NC1=C(Br)C(=O)c2ncccc2C1=O` [NSC-105808, 6-amino-7-bromoquinoline-5,8-dione] was run?
A: significantly reduced

Q: And the “Impact on cell cycle distribution” value [2]?
A: only a mild impact

Reference: publication PMC5520492, “Inhibition of DNA2 nuclease as a therapeutic strategy targeting replication stress in cancer cells” (Oncogenesis, 2017)
